Each structure is given as a SMILES string. Like-named read-outs stand apart in the source and are kept apart here. Where only a bound is given, the exact number is not on record here.

Here are results for 30 molecules from patent US11186544B2 (BRISTOL-MYERS SQUIBB COMPANY, priority 2017, dated 2021).

For one experiment, the target named is human FPR1 (Homo sapiens (Human), UniProt P21462). As to the kind of experiment: FPR1 cyclic adenosine monophosphate (cAMP) assay. It counts as cell-based. The note with it: CHO cells overexpressing human FPR1; inhibition of forskolin (10 μM) stimulated cAMP; read-out: hFPR1 cAMP EC50. As for the experimental part: (§1) FPR2 and FPR1 Cyclic Adenosine Monophosphate (cAMP) Assays. A mixture of forskolin (5 μM final for FPR2 or 10 μM final for FPR1) and IBMX (200 μM final) were added to 384-well Proxiplates (Perkin-Elmer) pre-dotted with test compounds in DMSO (1% final) at final concentrations in the range of 0.020 nM to 100 μM. Chinese Hamster Ovary cells (CHO) overexpressing human FPR1 or human FPR2 receptors were cultured in F-12 (Ham's) medium supplemented with 10% qualified FBS, 250 μg/ml zeocin and 300 μg/ml hygromycin (Life Technologies). Reactions were initiated by adding 2,000 human FPR2 cells per well or 4,000 human FPR1 cells per well in Dulbecco's PBS (with calcium and magnesium) (Life Technologies) supplemented with 0.1% BSA (Perkin-Elmer). The reaction mixtures were incubated for 30 min at room temperature. The level of intracellular cAMP was determined using the HTRF HiRange cAMP assay reagent kit (Cisbio) according to manufacturer's instruction. Solutions of cryptate conjugated anti-cAMP and d2 flurorophore-labelled cAMP were made in a supplied lysis buffer separately. Upon completion of the reaction, the cells were lysed with equal volume of the d2-cAMP solution and anti-cAMP solution. After a 1-h room temperature incubation, time-resolved fluorescence intensity was measured using the Envision (Perkin-Elmer) at 400 nm excitation and dual emission at 590 nm and 665 nm. A calibration curve was constructed with an external cAMP standard at concentrations ranging from 1 μM to 0.1 pM by plotting the fluorescent intensity ratio from 665 nm emission to the intensity from the 590 nm emission against cAMP concentrations. The potency and activity of a compound to inhibit cAMP production was then determined by fitting to a 4-parametric logistic equation from a plot of cAMP level versus compound concentrations.
Chain of human FPR1 (P21462 whole entry): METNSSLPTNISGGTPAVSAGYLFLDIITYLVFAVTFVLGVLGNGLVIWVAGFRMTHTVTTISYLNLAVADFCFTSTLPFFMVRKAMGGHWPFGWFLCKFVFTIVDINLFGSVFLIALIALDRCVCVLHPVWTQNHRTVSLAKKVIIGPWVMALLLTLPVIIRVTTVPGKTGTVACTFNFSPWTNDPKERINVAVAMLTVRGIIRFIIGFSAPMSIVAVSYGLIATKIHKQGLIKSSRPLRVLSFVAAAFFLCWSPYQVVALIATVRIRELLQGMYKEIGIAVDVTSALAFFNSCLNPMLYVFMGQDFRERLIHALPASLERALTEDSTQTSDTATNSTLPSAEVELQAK

Another experiment concerns the target human FPR2 (Homo sapiens (Human), UniProt P25090). As to the kind of experiment: FPR2 cyclic adenosine monophosphate (cAMP) assay. The class given is cell-based. The note with it: CHO cells overexpressing human FPR2. The method, then: as §1, with “After a 1-h room temperature incubation, time-resolved fluorescence intensity was measured using the Envision (Perkin-Elmer) at 400 nm excitation and dual emission at 590 nm and 665 nm. A calibration curve was constructed with an external cAMP standard at concentrations ranging from 1 μM to 0.1 pM by plotting the fluorescent intensity ratio from 665 nm emission to the intensity from the 590 nm emission against cAMP concentrations.” left out

The mark [1] stands for this setting: inhibition of forskolin (5 μM) stimulated cAMP, read-out: hFPR2 cAMP2 EC50.
Setting [2] is: hFPR2 Assay, read-out: hFPR2 agonist activity EC50.

Chain of human FPR2 (P25090 whole entry): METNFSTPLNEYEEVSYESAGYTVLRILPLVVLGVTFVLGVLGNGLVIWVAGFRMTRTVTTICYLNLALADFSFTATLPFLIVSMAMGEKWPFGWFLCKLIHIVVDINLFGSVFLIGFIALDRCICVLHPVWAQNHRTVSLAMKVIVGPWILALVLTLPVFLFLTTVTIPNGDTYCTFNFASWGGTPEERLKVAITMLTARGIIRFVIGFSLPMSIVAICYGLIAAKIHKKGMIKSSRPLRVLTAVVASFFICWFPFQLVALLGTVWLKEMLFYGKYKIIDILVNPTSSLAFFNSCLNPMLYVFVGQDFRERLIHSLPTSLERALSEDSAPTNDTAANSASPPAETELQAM

For `O=C(Nc1ccc(C(F)(F)F)cc1)N[C@@H]1CCCN(c2ccc(-c3cncc(N4CCOCC4)c3)cc2)C1=O` [Example 166], the concentration giving a half-maximal response (EC50) (commonly the concentration that produces a half-maximal response) worked out at 330 nM at human FPR1 and 8 nM on human FPR2 (setting [1]).

Take `CS(=O)(=O)Nc1ccccc1-c1ccc(N2CCC[C@@H](NC(=O)Nc3ccc(Cl)cc3F)C2=O)cc1` [Example 188]: the EC50 on human FPR1 was 25 nM; at human FPR2 (setting [1]), 0.13 nM.

As for `CS(=O)(=O)Nc1ccccc1-c1ccc(N2CCC[C@@H](NC(=O)Nc3ccc(Cl)cc3)C2=O)cc1OC(F)(F)F` [Example 300], on human FPR2 (setting [2]), the EC50 fell in the range of 5 to 40 nM.

Turning to `N#Cc1ccccc1-c1ccc(N2CCC[C@@H](NC(=O)Nc3ccc(Cl)cc3)C2=O)cc1` [Example 76], the EC50 at human FPR1 turned out to be 10 nM; on human FPR2 (setting [1]) it was 0.81 nM.

On to `CS(=O)(=O)Nc1ccccc1-c1cc(F)c(N2CCC[C@@H](NC(=O)Nc3ccc(Cl)cc3)C2=O)c(F)c1` [Example 260, (R)—N-(4′-(3-(3-(4-chlorophenyl)ureido)-2-oxopiperidin-1-yl)-3′,5′-difluoro-[1,1′-biphenyl]-2-yl)methanesulfonamide], for which the EC50 at human FPR1 came out at 210 nM; at human FPR2 (setting [1]), 0.59 nM.

For the molecule `CS(=O)(=O)Nc1ccccc1-c1ccc(N2CCC[C@@H](NC(=O)Nc3ccc(Cl)cc3)C2=O)cc1` [Example 86], the figures for the half-maximal effective concentration (EC50) on human FPR1 and at human FPR2 (setting [1]) were 32 nM and 0.14 nM, respectively.

In the case of `CS(=O)(=O)c1ccccc1-c1ccc(N2CCCC(NC(=O)Nc3ccc(Cl)nn3)C2=O)c(F)c1` (centres unmarked) [Example 27, 1-(6-chloropyridazin-3-yl)-3-(1-(3-fluoro-2′-(methylsulfonyl)-[1,1′-biphenyl]-4-yl)-2-oxopiperidin-3-yl)urea], the half-maximal effective concentration (EC50) at human FPR1 came to 950 nM; at human FPR2 (setting [1]), 400 nM.

Regarding `CS(=O)(=O)Nc1ccccc1-c1ccc(N2CCC[C@@H](NC(=O)Nc3ccc(C(F)(F)F)cc3F)C2=O)cc1` [Example 212], the EC50 at human FPR1 stood at 120 nM; at human FPR2 (setting [1]), 0.63 nM.

Regarding `CS(=O)(=O)Nc1ccccc1-c1ccc(N2C[C@H](O)C[C@@H](NC(=O)Nc3ccc(Cl)cc3)C2=O)cc1` [Example 211], the EC50 amounted to 27 nM at human FPR1 and 0.35 nM at human FPR2 (setting [1]).

For the molecule `CS(=O)(=O)Nc1ccccc1-c1ccc(N2CCC[C@@H](NC(=O)Nc3ccc(C(F)(F)F)cc3)C2=O)cc1` [Example 66], the EC50 at human FPR1 came to 100 nM; on human FPR2 (setting [1]), 0.32 nM.

Consider `COc1ccc(NC(=O)N[C@@H]2CCCN(c3ccc(-c4ccccc4NS(C)(=O)=O)cc3)C2=O)cc1` [Example 199], for which the EC50 at human FPR1 was 140 nM; on human FPR2 (setting [1]), 0.28 nM.

Regarding `CS(=O)(=O)Nc1ccccc1-c1ccc(N2CCC[C@@H](NC(=O)Nc3ccc(C(F)(F)F)cn3)C2=O)cc1` [Example 184], the 50% effective concentration (EC50) at human FPR1 worked out at 1500 nM; at human FPR2 (setting [1]), 8.1 nM.

For `NCc1cccc(-c2ccc(N3CCC[C@@H](NC(=O)Nc4ccc(Cl)cc4)C3=O)cc2)c1F` [Example 276, (R)-1-(1-(3′-(Aminomethyl)-2′-fluoro-[1,1′-biphenyl]-4-yl)-2-oxopiperidin-3-yl)-3-(4-chlorophenyl)urea], the results for the concentration giving a half-maximal response (EC50) on human FPR1 and at human FPR2 (setting [1]) were 680 nM and 8.5 nM, respectively.

For the molecule `CS(=O)(=O)Nc1c(F)cccc1-c1ccc(N2CCC[C@@H](NC(=O)Nc3ccc(Cl)cc3)C2=O)cc1` [Example 279, (R)-N-(4′-(3-(3-(4-Chlorophenyl)ureido)-2-oxopiperidin-1-yl)-3-fluoro-[1,1′-biphenyl]-2-yl]methanesulfonamide], the concentration for a half-maximal effect (EC50) at human FPR2 (setting [2]) was no more than 5 nM.

Turning to `CS(=O)(=O)Nc1ccccc1-c1ccc(N2CCC[C@@H](NC(=O)Nc3ccc(OC(F)F)nc3)C2=O)cc1` [Example 257], the EC50 is 3500 nM at human FPR1 and 17 nM at human FPR2 (setting [1]).

Regarding `N#Cc1ccccc1-c1ccc(N2CCC[C@@H](NC(=O)Nc3cnc(Cl)cn3)C2=O)c(F)c1F` [Example 275, (R)-1-(5-Chloropyrazin-2-yl)-3-(1-(2′-cyano-2,3-difluoro-[1,1′-biphenyl]-4-yl)-2-oxopiperidin-3-yl)urea], the EC50 at human FPR2 (setting [2]) was no more than 5 nM.

Regarding `NC(=O)c1ccc(-c2ccc(N3CCCC(NC(=O)Nc4ccc(C(F)(F)F)cc4)C3=O)cc2)cc1` (centres unmarked) [Example 48, 4′-(2-oxo-3-(3-(4-(trifluoromethyl)phenyl)ureido)piperidin-1-yl)-[1,1′-biphenyl]-4-carboxamide], the EC50 on human FPR1 amounted to 930 nM; at human FPR2 (setting [1]) it was 560 nM.

In the case of `COc1cnc(NC(=O)N[C@@H]2CCCN(c3ccc(-c4ccccc4NS(C)(=O)=O)c(F)c3)C2=O)c(F)c1` [Example 259], the concentration giving a half-maximal response (EC50) at human FPR1 amounted to 2000 nM; on human FPR2 (setting [1]) it was 22 nM.

For the molecule `O=C(Nc1ccc(Cl)cc1)NC1CCCN(c2ccc(-c3cccnc3)cc2)C1=O` (centres unmarked) [Example 16, 1-(4-chlorophenyl)-3-(2-oxo-1-(4-(pyridin-3-yl)phenyl)piperidin-3-yl)urea], the EC50 on human FPR1 was 390 nM; at human FPR2 (setting [1]), 9.3 nM.

For the molecule `CS(=O)(=O)c1ccc(-c2ccc(N3CCCC(NC(=O)Nc4ccc(C(F)(F)F)cc4)C3=O)cc2)cc1` (centres unmarked) [Example 49, 1-(1-(4′-(methylsulfonyl)-[1,1′-biphenyl]-4-yl)-2-oxopiperidin-3-yl)-3-(4-(trifluoromethyl)phenyl)urea], the EC50 on human FPR1 stood at 2100 nM; on human FPR2 (setting [1]) it was 850 nM.

For the molecule `Cc1ccc(NC(=O)N[C@@H]2CCCN(c3ccc(-c4ccccc4C(N)=O)cc3)C2=O)c(C)c1` [Example 175], the EC50 at human FPR1 amounted to 2600 nM; at human FPR2 (setting [1]) it was 520 nM.

On to `CS(=O)(=O)Nc1ccccc1-c1ccc(N2C[C@H](O)C[C@@H](NC(=O)Nc3ccc(C(F)(F)F)cc3)C2=O)cc1` [Example 213], for which the EC50 at human FPR1 came out at 110 nM; at human FPR2 (setting [1]), 0.75 nM.

Regarding `O=C(Nc1ccc(Cl)cc1)N[C@@H]1CCCN(c2ccc(-c3ccccc3CO)cc2)C1=O` [Example 77], the results for the concentration for a half-maximal effect (EC50) on human FPR1 and at human FPR2 (setting [1]) were 8.8 nM and 0.68 nM, respectively.

For `CC(N)c1cccc(-c2ccc(N3CCC[C@@H](NC(=O)Nc4ccc(C(F)(F)F)cn4)C3=O)c(F)c2F)c1` (stereo partly drawn) [Example 280, 1-((3R)-1-(3′-(1-Aminoethyl)-2,3-difluoro-[1,1′-biphenyl]-4-yl)-2-oxopiperidin-3-yl)-3-(5-(trifluoromethyl)pyridin-2-yl)urea], the EC50 on human FPR2 (setting [2]) lay within 5 to 40 nM.

Turning to `CS(=O)(=O)c1ccccc1-c1ccc(N2CCCC(NC(=O)Nc3ccc(F)cc3)C2=O)c(F)c1` (centres unmarked) [Example 28, 1-(1-(3-fluoro-2′-(methylsulfonyl)-[1,1′-biphenyl]-4-yl)-2-oxopiperidin-3-yl)-3-(4-fluorophenyl)urea], the EC50 is 1200 nM at human FPR1 and 560 nM on human FPR2 (setting [1]).

Turning to `COc1cc(-c2ccccc2NS(C)(=O)=O)ccc1N1CCC[C@@H](NC(=O)Nc2ncc(C(F)(F)F)cc2F)C1=O` [Example 255], the concentration giving a half-maximal response (EC50) at human FPR1 stood at 3300 nM; on human FPR2 (setting [1]) it was 17 nM.

Turning to `CN(c1ncccc1-c1ccc(N2CCC[C@@H](NC(=O)Nc3ccc(C(F)(F)F)cc3)C2=O)cc1)S(C)(=O)=O` [Example 145], the half-maximal effective concentration (EC50) came to 15 nM on human FPR1 and 0.36 nM at human FPR2 (setting [1]).

Consider `CS(=O)(=O)Nc1cccc(-c2ccc(N3CCC[C@@H](NC(=O)Nc4ccc(Cl)cc4)C3=O)cc2)c1F` [Example 278, (R)-N-(4′-(3-(3-(4-Chlorophenyl)ureido)-2-oxopiperidin-1-yl)-2-fluoro-[1,1′-biphenyl]-3-yl)methanesulfonainide], for which the EC50 at human FPR2 (setting [2]) was no more than 5 nM.

In the case of `O=C(Nc1ccc(Cl)cn1)N[C@@H]1C[C@@H](O)CN(c2ccc(-c3ccccc3F)cc2)C1=O` [Example 269, 1-(5-Chloropyridin-2-yl)-3-((3R,5R)-1-(2′-fluoro-[1,1′-biphenyl]-4-yl)-5-hydroxy-2-oxopiperidin-3-yl)urea], at human FPR2 (setting [2]), the half-maximal effective concentration (EC50) is 5 to 40 nM.

For the molecule `CC(N)c1cccc(-c2ccc(N3CCC[C@@H](NC(=O)Nc4ccc(Cl)cc4F)C3=O)c(F)c2F)c1` (stereo partly drawn) [Example 274, 1-((3R)-1-(3′-(1-Aminoethyl)-2,3-difluoro-[1,1′-biphenyl]-4-yl)-2-oxopiperidin-3-yl)-3-(4-chloro-2-fluorophenyl)urea], the EC50 at human FPR2 (setting [2]) is no more than 5 nM.
